Patent US10683269B2 (MISSION THERAPEUTICS LIMITED, priority 2016, dated 2020)
Like-named read-outs stand apart in the source and are kept apart here.

Molecular target: T1, USP7 (Homo sapiens, UniProt Q93009)
T1 construct: The USP7 construct was PCR amplified and cloned into a pFLAG-CMV-6a vector (Sigma-Aldrich) with an N-terminal FLAG tag; made in house; host or cells: HEK293T
Experiment: USP7 biochemical IC50 assay (fluorescence polarisation, TAMRA labelled peptide linked to ubiquitin via an iso-peptide bond)
Conditions: 30 min pre-incubation of enzyme and compound, read after 2 hr incubation at room temperature
Summary of the method: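 Fluorescence polarisation at 540 nm excitation/590 nm emission, read immediately and after 2 hr at room temperature, following addition of 50 nM TAMRA-labelled iso-peptide ubiquitin substrate.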

T1 sequence (Q93009 whole entry): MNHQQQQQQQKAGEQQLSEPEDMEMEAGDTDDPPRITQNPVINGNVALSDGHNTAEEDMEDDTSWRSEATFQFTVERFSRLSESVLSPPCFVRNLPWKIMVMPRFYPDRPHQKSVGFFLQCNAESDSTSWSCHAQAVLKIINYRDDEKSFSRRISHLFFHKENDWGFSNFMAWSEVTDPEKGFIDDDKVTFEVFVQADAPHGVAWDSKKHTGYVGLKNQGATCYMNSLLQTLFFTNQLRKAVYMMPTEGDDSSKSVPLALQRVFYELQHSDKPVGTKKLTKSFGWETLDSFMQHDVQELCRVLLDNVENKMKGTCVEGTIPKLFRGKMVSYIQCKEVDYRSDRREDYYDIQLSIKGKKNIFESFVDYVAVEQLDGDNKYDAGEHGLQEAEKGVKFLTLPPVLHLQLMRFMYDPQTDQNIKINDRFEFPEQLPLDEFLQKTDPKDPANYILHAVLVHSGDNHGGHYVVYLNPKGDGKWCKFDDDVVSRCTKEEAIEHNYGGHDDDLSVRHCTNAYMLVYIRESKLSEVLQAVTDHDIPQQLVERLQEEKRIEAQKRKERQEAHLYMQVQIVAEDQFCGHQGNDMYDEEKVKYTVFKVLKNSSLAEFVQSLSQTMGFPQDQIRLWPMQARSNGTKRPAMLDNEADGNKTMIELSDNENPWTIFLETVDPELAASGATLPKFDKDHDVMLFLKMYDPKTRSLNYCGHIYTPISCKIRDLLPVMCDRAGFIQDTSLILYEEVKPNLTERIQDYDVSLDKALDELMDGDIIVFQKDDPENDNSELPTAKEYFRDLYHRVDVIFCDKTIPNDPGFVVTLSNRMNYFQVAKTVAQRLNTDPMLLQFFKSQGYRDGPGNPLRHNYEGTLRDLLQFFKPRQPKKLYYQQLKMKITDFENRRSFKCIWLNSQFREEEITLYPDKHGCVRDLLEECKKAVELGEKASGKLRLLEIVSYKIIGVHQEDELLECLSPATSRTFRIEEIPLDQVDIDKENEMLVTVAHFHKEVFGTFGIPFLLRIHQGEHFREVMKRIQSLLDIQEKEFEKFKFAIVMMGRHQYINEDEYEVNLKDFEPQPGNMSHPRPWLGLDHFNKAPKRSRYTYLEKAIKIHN

Row | SMILES | IC50 (read-out: IC50 range) | IC50 (IC50 range)
1 | N#CN1Cc2cccc(-c3cccc4c3NC(=O)C4)c2C1 [Example 165, 4-(2-oxoindolin-7-yl)isoindoline-2-carbonitrile] | 1 to 10 µM | 
2 | N#Cc1ccccc1-c1cccc2c1CN(C#N)C2 [Example 166, 4-(2-cyanophenyl)isoindoline-2-carbonitrile] | 1 to 10 µM | 
3 | N#Cc1cc(F)ccc1-c1cccc2c1CN(C#N)C2 [Example 167, 4-(2-cyano-4-fluorophenyl)isoindoline-2-carbonitrile] | 1 to 10 µM | 
4 | N#Cc1cccc(F)c1-c1cccc2c1CN(C#N)C2 [Example 168, 4-(2-cyano-6-fluorophenyl)isoindoline-2-carbonitrile] | 1 to 10 µM | 
5 | N#Cc1cc(Cl)ccc1-c1cccc2c1CN(C#N)C2 [Example 169, 4-(4-chloro-2-cyanophenyl)isoindoline-2-carbonitrile] | 1 to 10 µM | 
6 | COc1cccc(-c2cccc3c2CN(C#N)C3)c1C#N [Example 170, 4-(2-cyano-3-methoxyphenyl)isoindoline-2-carbonitrile] | 1 to 10 µM | 
7 | COc1ccc(-c2cccc3c2CN(C#N)C3)c(C#N)c1 [Example 171, 4-(2-cyano-4-methoxyphenyl)isoindoline-2-carbonitrile] | 1 to 10 µM | 
8 | COc1ccc(C#N)c(-c2cccc3c2CN(C#N)C3)c1 [Example 172, 4-(2-cyano-5-methoxyphenyl)isoindoline-2-carbonitrile] | 1 to 10 µM | 
9 | COc1ccc(C#N)c(-c2cccc3c2CN(C#N)C3)n1 [Example 173, 4-(3-cyano-6-methoxypyridin-2-yl)isoindoline-2-carbonitrile] | 10 to 30 µM | 
10 | CN(C)S(=O)(=O)c1ccccc1-c1cccc2c1CN(C#N)C2 [Example 174, 2-(2-cyanoisoindolin-4-yl)-N,N-dimethylbenzenesulfonamide] | 1 to 10 µM | 
11 | CCNS(=O)(=O)c1ccccc1-c1cccc2c1CN(C#N)C2 [Example 175, 2-(2-cyanoisoindolin-4-yl)-N-ethylbenzenesulfonamide] | 1 to 10 µM | 
12 | N#Cc1ccc(-c2cccc3c2CN(C#N)C3)c2c1CCC2=O [Example 176, 4-(7-cyano-3-oxo-2,3-dihydro-1H-inden-4-yl)isoindoline-2-carbonitrile] | 1 to 10 µM | 
13 | N#Cc1ccc(-c2cccc3c2CN(C#N)C3)c(C(F)(F)F)c1 [Example 177, 4-(4-cyano-2-(trifluoromethyl)phenyl)isoindoline-2-carbonitrile] | 1 to 10 µM | 
14 | N#CN1Cc2cccc(-c3ccccc3S(=O)(=O)N3CCC3)c2C1 [Example 178, 4-(2-(azetidin-1-ylsulfonyl)phenyl)isoindoline-2-carbonitrile] | 1 to 10 µM | 
15 | N#CN1Cc2cccc(-c3ccccc3S(=O)(=O)NCCO)c2C1 [Example 179, 2-(2-cyanoisoindolin-4-yl)-N-(2-hydroxyethyl)benzenesulfonamide] | 1 to 10 µM | 
16 | N#CN1Cc2cccc(-c3ccccc3C(=O)NCCn3cnccc3=O)c2C1 [Example 180, 2-(2-cyanoisoindolin-4-yl)-N-(2-(6-oxopyrimidin-1(6H)-yl)ethyl)benzamide] | 1 to 10 µM | 
17 | N#Cc1cc(-n2ccnc2)ccc1-c1cccc2c1CN(C#N)C2 [Example 181, 4-(2-cyano-4-(1H-imidazol-1-yl)phenyl)isoindoline-2-carbonitrile] | 1 to 10 µM | 
18 | COc1cccc(-c2nnc(-c3cnn(C)c3)c3c2CN(C#N)C3)c1 [Example 182, 1-(3-methoxyphenyl)-4-(1-methyl-1H-pyrazol-4-yl)-5,7-dihydro-6H-pyrrolo[3,4-d]pyridazine-6-carbonitrile] | 1 to 10 µM | 
19 | N#CN1Cc2ncnc(N3CCc4ccccc4C3)c2C1 [Example 183, 4-(3,4-dihydroisoquinolin-2(1H)-yl)-5,7-dihydro-6H-pyrrolo[3,4-c]pyrimidine-6-carbonitrile] | 1 to 10 µM | 
20 | Cc1ccccc1OC1CCN(c2ncnc3c2CN(C#N)C3)CC1 [Example 184, 4-(4-(o-tolyloxy)piperidin-1-yl)-5,7-dihydro-6H-pyrrolo[3,4-d]pyrimidine-6-carbonitrile] | 1 to 10 µM | 
21 | N#CN1Cc2ncnc(N3CCC(OCc4ccccc4)CC3)c2C1 [Example 185, 4-(4-(benzyloxy)piperidin-1-yl)-5,7-dihydro-6H-pyrrolo[3,4-d]pyriimidine-6-carbonitrile] |  | 10 to 30 µM

Row | SMILES | IC50 (read-out: IC50 range) | IC50 (IC50 range)
22 | COc1ccccc1OC1CCN(c2ncnc3c2CN(C#N)C3)CC1 [Example 186, 4-(4-(2-methoxyphenoxy)piperidin-1-yl)-5,7-dihydro-6H-pyrrolo[3,4-d]pyrimidine-6-carbonitrile] | 1 to 10 µM | 
23 | CC(=O)Nc1nc2c(c(-c3ccc(F)cc3)n1)CN(C#N)C2 [Example 187, N-(6-cyano-4-(4-fluorophenyl)-6,7-dihydro-5H-pyrrolo[3,4-c]pyrimidin-2-yl)acetamide] | 1 to 10 µM | 
24 | CS(=O)(=O)CCNc1nc2c(c(-c3ccccc3)n1)CN(C#N)C2 [Example 188, 2-((2-(methylsulfonyl)ethyl)amino)-4-phenyl-5,7-dihydro-6H-pyrrolo[3,4-d]pyrimidine-6-carbonitrile] | 1 to 10 µM | 
25 | N#CN1Cc2nc(NC3CCOCC3)nc(-c3ccccc3)c2C1 [Example 189, 4-phenyl-2-((tetrahydro-2H-pyran-4-yl)amino)-5,7-dihydro-6H-pyrrolo[3,4-d]pyrimidine-6-carbonitrile] | 10 to 30 µM | 
26 | CN(CCO)c1nc2c(c(-c3ccccc3)n1)CN(C#N)C2 [Example 190, 2-((2-hydroxyethyl)(methyl)amino)-4-phenyl-5,7-dihydro-6H-pyrrolo[3,4-d]pyrimidine-6-carbonitrile] | 1 to 10 µM | 
27 | CN1CCOC(CN(C)c2nc3c(c(-c4ccccc4)n2)CN(C#N)C3)C1 (centres unmarked) [Example 191, 2-(methyl((4-methylmorpholin-2-yl)methyl)amino)-4-phenyl-5,7-dihydro-6H-pyrrolo[3,4-d]pyrimidine-6-carbonitrile] | 1 to 10 µM | 
28 | CN1CCOC(CNc2nc3c(c(-c4cccnc4)n2)CN(C#N)C3)C1 (centres unmarked) [Example 192, 2-(((4-methylmorpholin-2-yl)methyl)amino)-4-(pyridin-3-yl)-5,7-dihydro-6H-pyrrolo[3,4-d]pyrimidine-6-carbonitrile] | 1 to 10 µM | 
29 | CN1CCOC(CNc2nc3c(c(-c4cccc(F)c4)n2)CN(C#N)C3)C1 (centres unmarked) [Example 193, 4-(3-fluorophenyl)-2-(((4-methylmorpholin-2-yl)methyl)amino)-5,7-dihydro-6H-pyrrolo[3,4-d]pyrimidine-6-carbonitrile] | 1 to 10 µM | 
30 | CN1CCOC(CNc2nc3c(c(-c4ccc(F)cc4)n2)CN(C#N)C3)C1 (centres unmarked) [Example 194, 4-(4-fluorophenyl)-2-(((4-methylmorpholin-2-yl)methyl)amino)-5,7-dihydro-6H-pyrrolo[3,4-d]pyrimidine-6-carbonitrile] | 1 to 10 µM | 
31 | CC(=O)Nc1cccc(-c2nc(NCC3CN(C)CCO3)nc3c2CN(C#N)C3)c1 (centres unmarked) [Example 195, N-(3-(6-cyano-2-(((4-methylmorpholin-2-yl)methyl)amino)-6,7-dihydro-5H-pyrrolo[3,4-d]pyrimidin-4-yl)phenyl)acetamide] | 1 to 10 µM | 
32 | CN1CCCC(CNc2nc3c(c(N4CCc5ccccc5C4)n2)CN(C#N)C3)C1 (centres unmarked) [Example 196, 4-(3,4-dihydroisoquinolin-2(1H)-yl)-2-(((1-methylpiperidin-3-yl)methyl)amino)-5,7-dihydro-6H-pyrrolo[3,4-d]pyrimidine-6-carbonitrile] | 1 to 10 µM | 
33 | CN1CCOC(CNc2nc3c(c(N4CCc5ccccc5C4)n2)CN(C#N)C3)C1 (centres unmarked) [Example 197, 4-(3,4-dihydroisoquinolin-2(1H)-yl)-2-(((4-methylmorpholin-2-yl)methyl)amino)-5,7-dihydro-6H-pyrrolo[3,4-d]pyrimidine-6-carbonitrile] | 1 to 10 µM | 
34 | Cn1nccc1CNc1nc2c(c(N3CCc4ccccc4C3)n1)CN(C#N)C2 [Example 198, 4-(3,4-dihydroisoquinolin-2(1H)-yl)-2-(((1-methyl-1H-pyrazol-5-yl)methyl)amino)-5,7-dihydro-6H-pyrrolo[3,4-d]pyrimidine-6-carbonitrile] | 1 to 10 µM | 
35 | N#CN1Cc2nc(N[C@H]3CC[C@H](O)CC3)nc(N3CCc4ccccc4C3)c2C1 [Example 199] | 1 to 10 µM | 
36 | N#CN1Cc2nc(NCC3CCOCC3)nc(N3CCc4ccccc4C3)c2C1 [Example 200, 4-(3,4-dihydroisoquinolin-2(1H)-yl)-2-(((tetrahydro-2H-pyran-4-yl)methyl)amino)-5,7-dihydro-6H-pyrrolo[3,4-d]pyrimidine-6-carbonitrile] | 1 to 10 µM | 
37 | Cn1cc(CNc2nc3c(c(N4CCc5ccccc5C4)n2)CN(C#N)C3)cn1 [Example 201, 4-(3,4-dihydroisoquinolin-2(1H)-yl)-2-(((1-methyl-1H-pyrazol-4-yl)methyl)amino)-5,7-dihydro-6H-pyrrolo[3,4-d]pyrimidine-6-carbonitrile] | 1 to 10 µM | 
38 | N#CN1Cc2nc(NCCO)nc(N3CCc4ccccc4C3)c2C1 [Example 202, 4-(3,4-dihydroisoquinolin-2(1H)-yl)-2-((2-hydroxyethyl)amino)-5,7-dihydro-6H-pyrrolo[3,4-d]pyrimidine-6-carbonitrile] | 1 to 10 µM | 
39 | CN1CCOC(CN(C)c2nc3c(c(N4CCc5ccccc5C4)n2)CN(C#N)C3)C1 (centres unmarked) [Example 203, 4-(3,4-dihydroisoquinolin-2(1H)-yl)-2-(methyl((4-methylmorpholin-2-yl)methyl)amino)-5,7-dihydro-6H-pyrrolo[3,4-d]pyrimidine-6-carbonitrile] | 1 to 10 µM | 
40 | CNc1nc2c(c(N3CCC(Oc4ccccc4)CC3)n1)CN(C#N)C2 [Example 204, 2-(methylamino)-4-(4-phenoxypiperidin-1-yl)-5,7-dihydro-6H-pyrrolo[3,4-d]pyrimidine-6-carbonitrile] | 1 to 10 µM | 
41 | CN(C)c1nc2c(c(N3CCC(Oc4ccccc4)CC3)n1)CN(C#N)C2 [Example 205, 2-(dimethylamino)-4-(4-phenoxypiperidin-1-yl)-5,7-dihydro-6H-pyrrolo[3,4-d]pyrimidine-6-carbonitrile] | 1 to 10 µM | 
